In ChEMBL document CHEMBL1122711, “Design, synthesis, and testing of potential antisickling agents. 4. Structure-activity relationships of benzyloxy and phenoxy acids” (J Med Chem, 1984):

Tests used:
[1] = human, 40000 µM
Description: Solubility ratio ([HbS+drug (40 mM)]/[HbS-drug])

[2] = human, 10000 µM
[3] = human, 20000 µM
Description: Solubility ratio ([HbS+drug (20 mM)]/[HbS-drug]

[4] = human, 5000 µM
Description: Solubility ratio ([HbS+drug (5 mM)]/[HbS-drug])

SMILES	Solubility ratio [1]	Solubility ratio [2]	Solubility ratio [3]	Solubility ratio [4]
Cc1cc(Br)c(OCC(=O)O)c(Br)c1	1.284	1.043	1.139	1.077
Cc1ccc(COCC(=O)O)c(C)c1	1.325	1.054	1.163	1.05
Cc1cc(OCC(=O)O)cc(C)c1Br	1.092	1.004	1.063	0.996
COc1cc(OC)cc(OCC(=O)O)c1	1.232	1.052	1.12	1.03
COc1cc(OCC(=O)O)cc(OC)c1OC	1.047	1.013	1.015	0.987
O=C(O)CSc1cc(Cl)c(Cl)cc1Cl	1.12	1.032	1.07	1.018
O=C(O)CSCc1ccc(Br)cc1	1.307	1.053	1.131	1.024
Cc1cc(C)c(COCC(=O)O)c(C)c1	1.31	1.054	1.163	1.031
COc1cc(COCC(=O)O)ccc1C	1.248	1.081	1.145	1.034
O=C(O)C(CCOc1ccc(Br)cc1)C(=O)O	1.36	1.134	1.323	1.057
COc1cccc(OCC(=O)O)c1OC	1.144	1.036	1.064	1.017

The next lines start with the values.

Solubility ratio [1]	Solubility ratio [2]	Solubility ratio [3]	Solubility ratio [4]	SMILES
1.35	1.09	1.236	1.039	O=C(O)COCc1ccc(I)cc1
1.248	1.055	1.114	1.031	Cc1ccc(C)c(OCC(=O)O)c1
1.185	1.054	1.09	1.033	O=C(O)COc1ccc2c(c1)oc1ccccc12
1.113	1.042	1.067	1.029	O=C(O)COc1ccc2c(c1)Cc1ccccc1-2
1.396	1.104	1.206	1.065	O=C(O)COCc1ccc(Cl)cc1
1.339	1.117	1.234	1.061	O=C(O)COc1ccc(Cl)c(Cl)c1
1.304	1.059	1.137	1.017	Cc1ccc(COCC(=O)O)cc1
1.223	1.027	1.16	1.035	CSc1ccc(OCC(=O)O)cc1
1.149	1.012	1.054	0.996	COc1ccc(COCC(=O)O)cc1
1.176	1.046	1.09	1.04	O=C(O)COc1ccc(I)cc1
1.145	1.01	1.113	1	Nc1ccc(OCC(=O)O)cc1
	1.012	1.058	1.004	CC(C)(C)c1ccc(OCC(=O)O)cc1
1.398	1.118	1.233	1.059	O=C(O)COCc1ccc(Br)cc1
